Patent publication US6911475B1, “Use of nicotine or its derivatives in a drug for treating neurological disease, in particular Parkinson's disease” (Assistance Publique-Hopitaux de Paris, priority 1999, dated 2005)
Read-outs that look alike come from different tables or passages of the source.

What was measured:
[1] = tested on: Parkinson's disease
Experimental: (§1) The physical symptoms studied were: tremor, axial rigidity, gait and speech. The neuro-psychological symptoms were memory and sexual activity.
(§2) Over a period of six months, nicotine patches were administered to the patient, firstly using increasing doses over the first three months to reach a dose of 102 mg per day and then by combining two types of patch, namely a patch in the form of a slow release patch (patch P) and rapid release patches (patch R). Each patch P contained 21 mg of nicotine and each patch R contained 15 mg of nicotine.
Overall, the daily dose was 21 mg the first month and stabilized at 102 mg from the fourth month, divided into 42 mg under slow release and 60 mg under rapid release.
Concomitantly, L-DOPA was administered in a decreasing dose with time; in contrast, the bromocriptine dose was unchanged and remained at 30 mg per day over the entire treatment, as shown in Table II below.

[2] = tested on: Parkinson's disease; remark: listed apart in the source
Experimental: Clinical evaluation of the effect of the drug of the invention and of the treatment method was carried out using conventional UPDRS I, II and III neurological tests. These tests enabled both neuro-psychological and physical effects to be measured.
The UPDRS I test measures, on a scale of 0 to 4, mentation, behaviour and mood of the patient, taking into account the criteria of intellectual impairment, thought disorder, depression and motivation/initiative.
The UPDRS II test measures a series of sensory or motor physical tests, also on a scale of 0 to 4.
The UPDRS III test measures the motor activity of the patient, again on a scale of 0 to 4.
Zero indicates a normal state and four indicates maximum perturbation.
Clinical evaluation was based on the L-DOPA test and was carried out as follows:
The UPDRS test used is described below.
It consisted of halting the L-DOPA therapy to a zero dose 12 to 24 hours before the test.
The next day, every half hour, the condition and the clinical changes in the patient was measured during stoppage (“off” period, no L-DOPA) then the clinical changes during resumption (“on” period with L-DOPA). The time was measured using a chronometer.
This test was carried out with UPDRS measurements as described above: • motor UPDRS (Unified Parkinson's Disease Rating Scale); • UPDRS I (mental state of patient); • UPDRS II (daily life, on-off); ADL (activities of daily living); • Self-evaluation test (test carried out by the patient, verification and confirmation by physician of fluctuations in on-off periods during the day).

[3] = tested on: Parkinson's disease; remark: listed apart in the source
Experimental: as §1, §2

[4] = Re-administer nicotine at 102 mg/kg/d, after a period without nicotine

**Q.** What does the source list for CN1CCCC1c1cccnc1 (centres unmarked) [nicotine]?
**A.** Axial rigidity [1, 4]: 0; Gait [1, 4]: 0; Speech [1, 4]: 0; Tremor [1, 4]: 1; Axial rigidity ([1]; With nicotine treatment): 0; Gait ([1]; With nicotine treatment): 0; Speech ([1]; With nicotine treatment): 0; Tremor ([1]; With nicotine treatment, patient, concomitant L-DOPA and 30 mg/day bromocriptine, 0 = normal, 4 = maximum perturbation): 1; Axial rigidity (in words) ([1]; nicotine treatment, Table III): completely abolished; Gait and speech (in words) ([1]; nicotine treatment, Table III): normalised; Symptomatic effect of stopping administration of nicotine ([1]; stopping nicotine in the eighth month): no symptomatic effect; UPDRS I (mental state) ([2]; With nicotine treatment (6 months later), day 0 without nicotine: 10): 0; UPDRS II off (daily activity, ADL) ([2]; With nicotine treatment (6 months later), off = no L-DOPA, day 0 without nicotine: 22): 10; UPDRS II on (daily activity, ADL) ([2]; With nicotine treatment (6 months later), on = with L-DOPA, day 0 without nicotine: 13): 6; UPDRS score for the "off" periods (FIG. 2) ([2]; no L-DOPA, 30 mg bromocriptine, over nicotine treatment, except in the seventh month (nicotine interrupted)): reduction in the score; UPDRS measurements in the "on" periods (FIG. 2) ([2]; with L-DOPA (250 mg first test, 187.50 mg after six months), 30 mg bromocriptine, over nicotine treatment): constant decrease; Sexual problems and urinary dysfunction ([3]; after four months of treatment, problems present for two years): completely re-established functions; Depressive episodes ([3]; under nicotine treatment): reduced; Memory disorders ([3]; under nicotine treatment): reduced; Neuro-psychological manifestations of Parkinson's disease ([3]; within six months from commencing treatment): disappeared completely
